Measured values taken from US10457707B2, “Substituted urea depsipeptide analogs as activators of the CLPP endopeptidase” (priority 2015, dated 2019).
Values after ≈ are worked out from the molar mass of the structure shown. Like-named read-outs stand apart in the source and are kept apart here.

Experiments:
Type in all cases: cell-based
[1] = system: Bacillus subtilis, ATCC 23857; assay: Minimal inhibitory concentration assay (microbroth dilution)
Summary of the method: (§1)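 Paired MICs against USA 300 and its ClpP-inactivated counterpart test whether killing runs through ClpP. All strains: two-fold broth dilutions from 200 μM final, ~10^5 cfu/mL inoculum, overnight at 37 °C in air, lowest growth-free concentration read by eye.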

[2] = system: Enterococcus faecalis, ATCC 33186; assay: as above
Summary of the method: as §1

[3] = system: Staphylococcus aureus, ATCC 29213; assay: as above; details: ATCC29213, read-out: Minimal Inhibitory Concentrations S. aureus ATCC 29213
Summary of the method: as §1

[4] = system: Staphylococcus aureus, NRS70; assay: as above
Summary of the method: as §1

[5] = system: Streptococcus pneumoniae, DAW27; assay: as above; details: DAW27, read-out: Minimal Inhibitory Concentrations S. pneumoniae DAW27
Summary of the method: as §1

[6] = system: Streptococcus pyogenes, ATCC 700294; assay: as above
Summary of the method: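 Plates with two-fold compound dilution series in broth were incubated overnight, aerobically, at 37° C, following CLSI microdilution guidance.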

[7] = system: E. coli K12ΔtolC; assay: as above
[8] = system: Staphylococcus aureus, USA 300 wherein ClpP is inactivated; assay: Minimal inhibitory concentration assay
Summary of the method: as §1

[9] = system: Staphylococcus aureus, USA 300; assay: Minimal inhibitory concentration assay; details: USA300, read-out: Minimal Inhibitory Concentrations S. aureus USA 300
Summary of the method: as §1

[10] = system: Vero (kidney epithelial cells; ATCC CCL-81); assay: Cytotoxicity assay (CellTiter-Glo cell viability, 72 hours); details: Vero cells, 72 hours, growth inhibition; read-out: Cytotoxicity IC50
Summary of the method: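 Viability measured by CellTiter-Glo luminescence after 72-hour compound exposure (serial dilutions, DMSO control) of Vero monolayers seeded at 5000 cells/well in 10% FBS DMEM. IC50 values are the range of two biologically independent experiments, each run in duplicate.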

[11] = Bacillus subtilis, ATCC23857; read-out: Minimal Inhibitory Concentrations B. subtilis ATCC 23857
[12] = Enterococcus faecalis, ATCC33186; read-out: Minimal Inhibitory Concentrations E. faecalis ATCC 33186
[13] = Staphylococcus aureus, NRS70; read-out: Minimal Inhibitory Concentrations S. aureus NRS70
[14] = Streptococcus pyogenes, ATCC700294; read-out: Minimal Inhibitory Concentrations S. pyogenes ATCC 700294

SMILES | MIC [1, 11] | MIC [2, 12] | MIC [3] | MIC [4, 13] | MIC [5] | MIC [6, 14] | Minimal Inhibitory Concentrations E. coli K12ΔtolC [7] | Minimal Inhibitory Concentrations S. aureus USA 300 ΔClpP [8] | MIC [9] | IC50 [10] | MIC ([1]; Bacillus subtilis, ATCC23857, read-out: Minimal Inhibitory Concentrations B. subtilis ATCC 23857) | MIC ([2]; Enterococcus faecalis, ATCC33186, read-out: Minimal Inhibitory Concentrations E. faecalis ATCC 33186) | MIC ([4]; Staphylococcus aureus, NRS70, read-out: Minimal Inhibitory Concentrations S. aureus NRS70) | MIC ([6]; Streptococcus pyogenes, ATCC700294, read-out: Minimal Inhibitory Concentrations S. pyogenes ATCC 700294)
CCc1cccc(NC(=O)N[C@@H](Cc2ccccc2)C(=O)N[C@H]2COC(=O)[C@@H]3C[C@@H](C)CN3C(=O)[C@H](C)NC(=O)[C@@H]3CCCCN3C(=O)[C@@H]3CCCN3C2=O)c1 [Compound 10, (S)—N-((2R,6S,8aS,14aS,20S,23aS)-2,6-dimethyl-5,8,14,19,23-pentaoxooctadecahydro-1H,5H,14H,19H-pyrido[2,1-i]dipyrrolo[2,1-c:2′,1′-l][1]oxa[4,7,10,13]tetraazacyclohexadecin-20-yl)-2-(3-(3-ethylphenyl)ureido)-3-phenylpropanamide] | 0.6 µM (≈ 0.463 µg/mL) | 0.3 µM (≈ 0.232 µg/mL) | 0.6 µM (≈ 0.463 µg/mL) | 0.6 µM (≈ 0.463 µg/mL) | 0.3 µM (≈ 0.232 µg/mL) | 0.6 µM (≈ 0.463 µg/mL) |  |  |  |  |  |  |  | 
CCc1ccc(NC(=O)N[C@@H](Cc2ccccc2)C(=O)N[C@H]2COC(=O)[C@@H]3C[C@@H](C)CN3C(=O)[C@H](C)NC(=O)[C@@H]3CCCCN3C(=O)[C@@H]3CCCN3C2=O)cc1 [Compound 4, (S)—N-((2R,6S,8aS,14aS,20S,23aS)-2,6-dimethyl-5,8,14,19,23-pentaoxooctadecahydro-1H,5H,14H,19H-pyrido[2,1-i]dipyrrolo[2,1-c:2′,1′-l][1]oxa[4,7,10,13]tetraazacyclohexadecin-20-yl)-2-(3-(4-ethylphenyl)ureido)-3-phenylpropanamide] | 0.2 µM (≈ 0.154 µg/mL) | 0.1 µM (≈ 0.0772 µg/mL) | 0.78 µM (≈ 0.602 µg/mL) | 0.39 µM (≈ 0.301 µg/mL) | 0.04 µM (≈ 0.0309 µg/mL) | 0.2 µM (≈ 0.154 µg/mL) | 25 µM |  |  |  |  |  |  | 
O=C(N[C@H](CO)[C@H](O)c1ccc([N+](=O)[O-])cc1)C(Cl)Cl [Chloroamphenicol, chloramphenicol, reference compound] | 3.1 µM (≈ 1 µg/mL) | 0.39 µM (≈ 0.126 µg/mL) | 3.13 µM (≈ 1.01 µg/mL) | 3.1 µM (≈ 1 µg/mL) | 0.78 µM (≈ 0.252 µg/mL) |  | 0.78 µM | 6.3 µM | 3.1 µM (≈ 1 µg/mL) |  |  |  |  | 
C[C@@H]1C[C@H]2C(=O)OC[C@H](NC(=O)[C@H](Cc3ccccc3)NC(=O)Nc3ccc4ccn(C)c4c3)C(=O)N3CCC[C@H]3C(=O)N3CCCC[C@H]3C(=O)N[C@@H](C)C(=O)N2C1 [Compound 12, (S)—N-((2R,6S,8aS,14aS,20S,23aS)-2,6-dimethyl-5,8,14,19,23-pentaoxooctadecahydro-1H,5H,14H,19H-pyrido[2,1-i]dipyrrolo[2,1-c:2′,1′-l][1]oxa[4,7,10,13]tetraazacyclohexadecin-20-yl)-2-(3-(1-methyl-1H-indol-6-yl)ureido)-3-phenylpropanamide] |  |  | 2.5 µM (≈ 1.99 µg/mL) |  | 0.3 µM (≈ 0.239 µg/mL) |  |  |  |  | 90 ± 7.6 µM | 2.5 µM (≈ 1.99 µg/mL) | 1.25 µM (≈ 0.996 µg/mL) | 2.5 µM (≈ 1.99 µg/mL) | 0.6 µM (≈ 0.478 µg/mL)
CCc1ccc(NC(=O)N[C@@H](Cc2cc(F)cc(F)c2)C(=O)N[C@H]2COC(=O)[C@@H]3C[C@@H](C)CN3C(=O)[C@H](C)NC(=O)[C@@H]3CCCCN3C(=O)[C@@H]3CCCN3C2=O)cc1 [Compound 14, (S)-3-(3,5-difluorophenyl)-N-((2R,6S,8aS,14aS,20S,23aS)-2,6-dimethyl-5,8,14,19,23-pentaoxooctadecahydro-1H,5H,14H,19H-pyrido[2,1-i]dipyrrolo[2,1-c:2′,1′-l][1]oxa[4,7,10,13]tetraazacyclohexadecin-20-yl)-2-(3-(4-ethylphenyl)ureido)propanamide] | 0.08 µM (≈ 0.0646 µg/mL) | 0.04 µM (≈ 0.0323 µg/mL) | 0.1 µM (≈ 0.0808 µg/mL) | 0.08 µM (≈ 0.0646 µg/mL) | 0.04 µM (≈ 0.0323 µg/mL) | 0.8 µM (≈ 0.646 µg/mL) |  |  |  |  |  |  |  | 
COc1cccc(NC(=O)N[C@@H](Cc2ccccc2)C(=O)N[C@H]2COC(=O)[C@@H]3C[C@@H](C)CN3C(=O)[C@H](C)NC(=O)[C@@H]3CCCCN3C(=O)[C@@H]3CCCN3C2=O)c1 [Compound 8, (S)—N-((2R,6S,8aS,14aS,20S,23aS)-2,6-dimethyl-5,8,14,19,23-pentaoxooctadecahydro-1H,5H,14H,19H-pyrido[2,1-i]dipyrrolo[2,1-c:2′,1′-l][1]oxa[4,7,10,13]tetraazacyclohexadecin-20-yl)-2-(3-(3-methoxyphenyl)ureido)-3-phenylpropanamide] | 3.13 µM (≈ 2.42 µg/mL) | 1.56 µM (≈ 1.21 µg/mL) | 3.13 µM (≈ 2.42 µg/mL) | 3.13 µM (≈ 2.42 µg/mL) | 0.39 µM (≈ 0.302 µg/mL) | 0.78 µM (≈ 0.604 µg/mL) | 200 µM |  |  |  |  |  |  | 
